The values that follow come from PubChem BioAssay AID1053144 (Broad Institute, 2014).

The experiment relates to NPC TCF/LEF luciferase reporter, Wnt3a EC25, 24 h. The experiment in a line: TCF/LEF reporter activation in neural progenitors – cell-based, iPS-derived NPC, luciferase, Wnt3a, cherry-pick, dose response (AID 1053144).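 Also: Wnt3a stimulus is conditioned medium from Wnt3a-transfected mouse L cells at 5% in well.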

Structures are written as SMILES.

On to `COc1ccc2c(c1)c(/C=N/Nc1nc3ccccc3[nH]1)c(C)n2C`, for which the AC30 is 12.1 µM.

For `Fc1ccccc1-c1nc(-c2ccncc2)no1`, the AC30 is 2.79 µM. In the case of `COC(=O)CCc1sc(Nc2ccccc2)nc1-c1ccc(OC)cc1`, the AC30 is 12.9 µM. To `CC(=O)Nc1sc2c(c1-c1nc3ccccc3s1)CN(C(C)C)CC2` belongs 2.43 µM; to `COc1ccc2oc(C(=O)c3ccccc3)c(N)c2c1`, 7.18 µM.

In the case of `COc1ccc(C(=O)O/N=C(\N)c2ccc(Cl)cc2)cc1`, the AC30 was 9.22 µM. To `O=C(Nc1ccc(Br)cn1)c1ccc(Br)s1` belongs 4.78 µM. In the case of `O=[N+]([O-])c1ccccc1-c1nc(-c2ccc(Br)o2)no1`, the AC30 is 4.78 µM.

With `O=C(NCC1CCCO1)c1cc(-c2ccc(F)cc2)no1` (configuration not stated), the AC30 is 15.9 µM. For `COCCNC(=O)c1cc(-c2cccs2)on1`, the AC30 is 16.9 µM. As for `CCOC(=O)c1c(C)[nH]c(C(=O)COC(=O)C2(C)CC2(Cl)Cl)c1C` (configuration not stated), the AC30 is 6.45 µM. To `COc1ccc(NC(=O)n2ncc3c(C)cccc32)cc1` belongs 4.78 µM; to `c1ccc(-c2cc(-c3ccccc3)on2)cc1`, 4.78 µM; to `CN(C)S(=O)(=O)Oc1cccc(C(=O)Nc2cccc(Cl)c2)c1`, 13 µM. With `CCC(=O)NC1=C(Nc2ccc(N)cc2)C(=O)c2ccccc2C1=O`, the AC30 was 5.42 µM. For `COc1cccc(-c2nnc(SCC(=O)N(C(C)C)C(C)C)o2)c1` the value was 20.7 µM; for `CC(C)c1ccc(NC(=O)c2ccccc2NC(=O)C2CCCCC2C(=O)O)cc1` (configuration not stated), 15.5 µM; for `CCCc1cc(C(=O)Nc2cccc(C(C)=O)c2)no1`, 10.5 µM.

As to `COc1ccc(C(=O)NC2=NCCS2)cc1`, the AC30 is 9.19 µM. To `Cc1cc(N(C)C)ccc1N=Nc1ccc2ncccc2c1` belongs 2.2 µM. In the case of `O=c1[nH]c(=O)n([C@H]2C[C@H](O)[C@@H](CO)O2)cc1Br`, the AC30 is 13.2 µM. As to `CC1=NN(c2ccccc2)C(=O)C1N=Nc1ccccc1` (configuration not stated), the AC30 is 4.78 µM. To `C(=C\c1nc(-c2cccnc2)no1)/c1ccccc1` belongs 4.78 µM.

In the case of `Nc1ccc2nc3c(=O)n(C4CCCCC4)c(=O)[nH]c3nc2c1`, the AC30 was 10.5 µM. As to `O=C(/C=C\c1ccc(-c2ccccc2)o1)c1ccccc1`, the AC30 was 4.16 µM. To `COc1ccc(N2COC3c4cccc5cccc(c45)C32)cc1` (configuration not stated) belongs 17.8 µM. To `CCOC(=O)C(NC(=O)c1ccc(F)cc1)(Nc1sc2c(c1C(N)=O)CCC2)C(F)(F)F` (configuration not stated) belongs 16.3 µM. For `CC1CCc2c(C(=O)Nc3ccccn3)csc2C1` (configuration not stated) the value was 4.65 µM. Turning to `O=C(COc1ccc(F)cc1Br)N1CCc2ccccc21`, the AC30 is 4.78 µM. Consider `CC1(C)CC(=O)C2=C(C1)c1c(ccc3ccccc13)NC2c1ccco1` (configuration not stated), for which the AC30 is 14.8 µM. With `COc1cc(/C=C/c2ccc3cccc(O)c3n2)cc(OC)c1OC`, the AC30 is 13.7 µM. For `O=C(c1ccccc1)c1ccc2nc(-c3ccco3)c(-c3ccco3)nc2c1`, the AC30 was 8.23 µM.

Consider `COc1ccc(/C=C/c2ccncc2)cc1`, for which the AC30 is 11.1 µM. To `COc1ccc(/C=N/Nc2ccccn2)cc1O` belongs 11.6 µM; to `O=C(Nc1ccccc1O)c1ccc(NC(=O)C2CC2)cc1`, 5.37 µM; to `O=C(/C=C/c1ccco1)Nc1ccc2c(c1)OCO2`, 12.1 µM. As for `N/C(=N\OC(=O)c1ccco1)c1ccc(Cl)cc1`, the AC30 was 11.8 µM.

Regarding `Fc1ccccc1-c1ccc(/C=N/Nc2nc3ccccc3[nH]2)o1`, the AC30 was 17.3 µM. To `Cc1ccc(/C=N/Nc2nc3ccccc3[nH]2)s1` belongs 16.1 µM. To `CC(=O)N(C)c1ccc(NC(=O)c2ccco2)cc1` belongs 11.6 µM; to `CCOC(=O)c1c(Nc2ccc(OC)cc2)n[nH]c1C`, 11.4 µM; to `Cc1ccc2nc(-c3ccc(NS(=O)(=O)c4c(C)n(C)c(=O)n(C)c4=O)cc3)sc2c1`, 2.2 µM. Consider `O=c1c2cccc(Cl)c2nc2n1Cc1ccccc1-2`, for which the AC30 was 16.7 µM.

Consider `O=C(Nc1nc2cc3c(cc2s1)OCCO3)c1ccc([N+](=O)[O-])o1`, for which the AC30 was 9.12 µM. For `COc1ccc(CCNC(=O)c2cc(-c3ccco3)on2)cc1OC` the value was 11.4 µM; for `O=C(Nc1ccc2nc(-c3ccccc3)[nH]c2c1)c1ccco1`, 16.9 µM; for `Cc1cccc(C(=O)OCC(=O)N2CCCCCC2)c1C`, 12.1 µM. As for `Cc1cccc(/C(N)=N/OC(=O)c2ccc(Br)o2)c1`, the AC30 was 11.7 µM. To `CCOC(=O)c1ccc(-c2ccc(CO)o2)cc1` belongs 17.5 µM; to `O=C(C=Cc1ccco1)c1ccc2ccccc2c1`, 11.2 µM. With `O=C(OCC(=O)c1ccc(Br)s1)c1ccc(O)cc1`, the AC30 was 15.8 µM. To `CCc1cc2c(=O)[nH]c(-c3ccccn3)nc2s1` belongs 10.2 µM; to `O=c1/c(=C\c2ccc(F)cc2)sc2n1CCCN=2`, 12.5 µM; to `CCOCC(=O)Nc1nc2ccc(OCC)cc2s1`, 11.8 µM. To `Cc1ccc(C(=O)NNc2ncnc3ccccc23)cc1` belongs 8.88 µM. Take `O=C(/C=C/c1ccco1)NCCc1ccccc1`: the AC30 was 5.05 µM. To `CCOc1ccc(CCNC(=O)/C=C/c2ccco2)cc1OCC` belongs 13.5 µM; to `Cn1c(SCC(=O)c2ccccc2)nnc1-c1ccco1`, 4.78 µM; to `COc1cccc(/C=C2\N=C3CCCCCN3C2=O)c1`, 16.1 µM. For `O=C(NCCc1ccccc1)c1cc(-c2ccco2)on1` the value was 10.7 µM; for `O=C(/C=C/c1ccccc1)c1c[nH]c2ccccc12`, 4.78 µM; for `CC1CC1C(=O)OCc1cc(=O)n2cc(Br)ccc2n1` (configuration not stated), 9.48 µM. To `O=C(CCc1nnc(C2CCCCC2)o1)N1CCN(c2ccccc2F)CC1` belongs 8.97 µM. For the compound `Cc1ccc(COc2ccc3c(c2)OCO3)cc1`, the AC30 was 17 µM. For `O=C1C=C(c2ccc3[nH]ccc3c2)CCC1` the value was 10.1 µM; for `COc1ccc(N=C(C)c2sc3ccccc3c2O)cc1`, 4.78 µM.

For the compound `Cc1ccc(Nc2ncccc2C(N)=O)cc1[N+](=O)[O-]`, the AC30 was 5.42 µM.

On to `O=C(Nn1cnc2ccccc2c1=O)c1c(F)cccc1F`, for which the AC30 is 18.8 µM. Turning to `O=C(Cc1nc2ccccc2[nH]1)c1ccc([N+](=O)[O-])cc1`, the AC30 was 7.12 µM. For `Cc1oc(=O)c(NC(=O)c2cccc(Cl)c2)cc1C(=O)c1ccccc1` the value was 7.11 µM; for `COc1cccc(NC(=O)c2csc3c2CCCC3)c1`, 4.78 µM.

Turning to `CCc1ccccc1NC(=O)c1cccc(NC(=O)/C=C/c2ccco2)c1`, the AC30 was 13.2 µM. To `O=C(Nc1ccccc1O)c1ccc(NS(=O)(=O)c2cccc3cccnc23)cc1` belongs 3.53 µM. For `O=C1Nc2ccccc2S/C1=C/c1cccs1` the value was 12.9 µM. For `CCCNC(=O)c1oc2ccc3c(c2c1C)C=CC(C)(C)O3` the value was 8.63 µM; for `O=C(c1ccc(-c2ccc(Cl)cc2Cl)o1)N1CCOCC1`, 8.53 µM; for `O=[N+]([O-])c1cccc(-c2nnc(-c3ccccc3F)o2)c1`, 8.84 µM. For `CSc1ccc(C(=O)/C=C/c2ccc(N)cc2)cc1`, the AC30 is 6.32 µM. As to `O=C1c2ccccc2C(=O)C1c1ccc(O)cc1`, the AC30 is 14.7 µM.

As for `CSc1ccccc1C(=O)Nc1ccc2c(c1)CCC2`, the AC30 was 3.13 µM. `COc1ccc(-c2ccc3ccccc3n2)cc1OC`: the AC30 was 9.49 µM. To `O=C(O)c1ccc(/C=C(\c2nc3ccccc3[nH]2)c2nc3ccccc3s2)cc1` belongs 15.8 µM; to `O=C(Nc1ncccc1O)c1ccc2c(c1)OCCO2`, 5.13 µM; to `O=C(c1cc2ccccc2o1)c1cccs1`, 8.58 µM. For the compound `CC(=O)Nc1ccc2nc3ccccc3nc2c1`, the AC30 is 15.3 µM. For `O=C(NC1CCCC1)c1cc(-c2ccccc2)on1` the value was 8.71 µM. For the compound `Cc1ccc2cc(NC(=O)c3cccc(F)c3)ccc2n1`, the AC30 was 10.5 µM. Regarding `Nc1ccc2nc(-c3ccccc3)cnc2c1`, the AC30 was 8.28 µM.

Consider `Nc1ccc(-c2nc3cc([N+](=O)[O-])ccc3o2)cc1`, for which the AC30 was 4.78 µM.

As to `COc1ccccc1OCc1cc(C(=O)N(C)CCC2CCOCC2)no1`, the AC30 was 9.94 µM.

On to `COc1cc(C(=O)O/N=C2\C=CC(=O)C(C)=C2)cc(OC)c1OC`, for which the AC30 was 16 µM. Regarding `CCCCOC(=O)Nc1ccc(C(=O)OC)cc1`, the AC30 is 11.7 µM. As for `Cn1c(CCNC(=O)c2ccco2)nc2cc(NC(=O)c3ccco3)ccc21`, the AC30 was 11.8 µM. For `O=C(O)c1ccc(N=Nc2c(O)[nH]c3cc(Cl)ccc23)cc1` the value was 4.78 µM; for `Clc1ccc(SCc2cn3ccsc3n2)cc1`, 8.8 µM. Take `Cc1ccc2oc(-c3cccc(NC(=O)c4ccccn4)c3)nc2c1`: the AC30 was 10.9 µM. Consider `c1ccc2c(c1)oc1c(Nc3ccc4c(c3)OCO4)ncnc12`, for which the AC30 was 4.78 µM. On to `Cc1cccc(NC(=O)c2c(O)c3ccccc3[nH]c2=O)c1`, for which the AC30 is 6.72 µM. In the case of `O=C(Nc1ccc(Cl)cc1)OCc1ccccn1`, the AC30 is 9.15 µM.

Consider `CC1(C)CC(=O)/C(=N/Nc2ccc(Cl)cc2)CO1`, for which the AC30 is 4.78 µM. To `O=C(NCCO)c1ccc2c3n(nc2c1)-c1ccc(Cl)cc1CO3` belongs 12.3 µM. To `O=C(CCCCCCC(=O)Nc1ccccc1)NO` belongs 1.47 µM. On to `Nc1nc(-c2cc3ccccc3o2)cs1`, for which the AC30 is 4.78 µM. For `COc1cccc(-c2csc(NC(=O)C3CC3)n2)c1` the value was 13.9 µM; for `COc1ccc2sc(NC(=O)CC(C)C)nc2c1`, 13.4 µM; for `CCOc1ccc(-c2nnc(-c3ccccc3)n2-c2ccccc2)cc1`, 12.4 µM. For `O=C(/C=C/c1ccc(O)c(O)c1)c1ccccc1O` the value was 8.06 µM; for `CCc1ccccc1-n1c(SCC(=O)N2CCCC2)nnc1-c1ccccn1`, 8.48 µM; for `O=C(COC(=O)c1cccs1)c1ccc2ccccc2c1`, 9.52 µM. Regarding `Nc1ccccc1NC(=O)c1ccccc1`, the AC30 is 8.77 µM.

For the compound `Cc1csc(=NC(=O)c2ccccc2)n1C`, the AC30 is 8.72 µM. For the compound `CC(C)C1COC(c2cccc3ccccc23)=N1` (configuration not stated), the AC30 was 4.78 µM.
